Results from patent US20240360082A1, “SUBSTITUTED PYRIDONE COMPOUNDS USEFUL TO TREAT ORTH[…]” (priority 2021, published 2024).

Molecular target: influenza A virus minigenome (PB2, PB1, PA, NP proteins) (UniProt P04665)
Type: cell-based
Conditions: read-out: RNP_ Hubei B IC50

Chain of influenza A virus minigenome (PB2, PB1, PA, NP proteins) (P04665 whole entry): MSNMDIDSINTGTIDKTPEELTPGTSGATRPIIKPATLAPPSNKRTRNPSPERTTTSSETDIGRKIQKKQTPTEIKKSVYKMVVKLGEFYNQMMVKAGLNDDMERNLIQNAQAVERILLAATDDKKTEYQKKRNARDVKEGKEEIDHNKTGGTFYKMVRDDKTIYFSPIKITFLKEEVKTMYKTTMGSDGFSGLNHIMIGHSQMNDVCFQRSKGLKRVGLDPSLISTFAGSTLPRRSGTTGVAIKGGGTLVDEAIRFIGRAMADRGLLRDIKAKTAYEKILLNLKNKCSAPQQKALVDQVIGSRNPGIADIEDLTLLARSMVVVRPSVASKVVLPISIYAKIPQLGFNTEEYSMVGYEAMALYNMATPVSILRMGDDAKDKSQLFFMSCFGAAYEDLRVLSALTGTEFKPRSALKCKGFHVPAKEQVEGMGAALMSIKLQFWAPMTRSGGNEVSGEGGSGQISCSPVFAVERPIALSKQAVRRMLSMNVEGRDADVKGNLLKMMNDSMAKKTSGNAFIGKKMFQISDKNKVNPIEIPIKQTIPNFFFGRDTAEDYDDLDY

`NC(=O)c1cc(-c2ccc(OCC3COCCO3)cc2)c(C(F)(F)F)[nH]c1=O` (single isomer, unassigned) [Example 238, 5-(4-((1,4-dioxan-2-yl)methoxy)phenyl)-2-oxo-6-(trifluoromethyl)-1,2-dihydropyridine-3-carboxamide] and `CC1COC(COc2ccc(-c3cc(C(N)=O)c(=O)[nH]c3C(F)(F)F)cc2)CO1` (single isomer, unassigned) [Example 322, 5-(4-((5-methyl-1,4-dioxan-2-yl)methoxy)phenyl)-2-oxo-6-(trifluoromethyl)-1,2-dihydropyridine-3-carboxamide] fall in the same range of IC50: 25 to 50 µM for the first, 25 to 50 µM for the second.

`COC[C@@]1(CF)COC[C@@H](COc2ccc(-c3cc(C(N)=O)c(=O)[nH]c3C(F)(F)F)cc2)O1` [Example 417, 5-(4-(((2S,6S)-6-(fluoromethyl)-6-(methoxymethyl)-1,4-dioxan-2-yl)methoxy)phenyl)-2-oxo-6-(trifluoromethyl)-1,2-dihydropyridine-3-carboxamide] and `CN(C)C[C@@]1(C)COC[C@@H](COc2ccc(-c3cc(C(N)=O)c(=O)[nH]c3C(F)(F)F)cc2)O1` [Example 423, 5-(4-(((2S,6S)-6-((dimethylamino)methyl)-6-methyl-1,4-dioxan-2-yl)methoxy)phenyl)-2-oxo-6-(trifluoromethyl)-1,2-dihydropyridine-3-carboxamide] fall in the same range of IC50: 5 to 10 µM for the first, 5 to 10 µM for the second.

Compared with `NC(=O)c1cc(-c2ccc(OCC3COC(C(F)F)CO3)cc2)c(C(F)(F)F)[nH]c1=O` (single isomer, unassigned) [Example 346, 5-(4-((5-(difluoromethyl)-1,4-dioxan-2-yl)methoxy)phenyl)-2-oxo-6-(trifluoromethyl)-1,2-dihydropyridine-3-carboxamide], `NC(=O)c1cc(-c2ccc(OCC3C[C@@H]4CC[C@H]3O4)cc2)c(C(F)(F)F)[nH]c1=O` (single isomer, unassigned) [Example 315, 5-(4-((7-oxabicyclo[2.2.1]heptan-2-yl)methoxy)phenyl)-2-oxo-6-(trifluoromethyl)-1,2-dihydropyridine-3-carboxamide] is higher in IC50: 5 to 10 µM for the first, 10 to 25 µM for the second. The first is the more potent here.

Compared with `CCC1(COc2ccc(-c3cc(C(N)=O)c(=O)[nH]c3C(F)(F)F)cc2)COC1` [Example 228], `CC1(COc2ccc(-c3cc(C(N)=O)c(=O)[nH]c3C(F)(F)F)cc2)COC1` [Example 227] is higher in IC50: 10 to 25 µM for the first, 25 to 50 µM for the second.

`NC(=O)c1cc(-c2ccc(OCC3COCC(Cn4cccc4)O3)cc2)c(C(F)(F)F)[nH]c1=O` (single isomer, unassigned) [Example 375, 5-(4-((6-((1H-pyrrol-1-yl)methyl)-1,4-dioxan-2-yl)methoxy)phenyl)-2-oxo-6-(trifluoromethyl)-1,2-dihydropyridine-3-carboxamide] and `C[C@]1(COCC(F)(F)F)COC[C@@H](COc2ccc(-c3cc(C(N)=O)c(=O)[nH]c3C(F)(F)F)cc2)O1` [Example 432, 5-(4-(((2S,6R)-6-methyl-6-((2,2,2-trifluoroethoxy)methyl)-1,4-dioxan-2-yl)methoxy)phenyl)-2-oxo-6-(trifluoromethyl)-1,2-dihydropyridine-3-carboxamide] fall in the same range of IC50: 5 to 10 µM for the first, 5 to 10 µM for the second.

Compared with `Cc1cc(COc2ccc(-c3cc(C(N)=O)c(=O)[nH]c3C(F)(F)F)cc2)no1` [Example 224, 5-(4-((5-methylisoxazol-3-yl)methoxy)phenyl)-2-oxo-6-(trifluoromethyl)-1,2-dihydropyridine-3-carboxamide], `Cc1cncc(COc2ccc(-c3cc(C(N)=O)c(=O)[nH]c3C(F)(F)F)cc2)n1` [Example 283, 5-(4-((6-methylpyrazin-2-yl)methoxy)phenyl)-2-oxo-6-(trifluoromethyl)-1,2-dihydropyridine-3-carboxamide] is lower in IC50: 25 to 50 µM for the first, 5 to 10 µM for the second. The second is the more potent here.

`CC(C)n1cc2c(n1)COCC2COc1ccc(-c2cc(C(N)=O)c(=O)[nH]c2C(F)(F)F)cc1` (single isomer, unassigned) [Example 296, 5-(4-((2-isopropyl-2,4,5,7-tetrahydropyrano[3,4-c]pyrazol-4-yl)methoxy)phenyl)-2-oxo-6-(trifluoromethyl)-1,2-dihydropyridine-3-carboxamide] gave an IC50 of 5 to 10 µM.

Same assay, conditions: read-out: RNP_Hubei B

First: CC1COCCN1Cc1ccc(-c2cc(C(N)=O)c(=O)[nH]c2C(F)(F)F)cc1 (stereo not drawn) [Example 27, 5-(4-((3-methylmorpholino)methyl)phenyl)-2-oxo-6-(trifluoromethyl)-1,2-dihydropyridine-3-carboxamide]
Second: NC(=O)c1cc(-c2ccc(CN3CCOCC34CC4)cc2)c(C(F)(F)F)[nH]c1=O [Example 30, 5-(4-((7-oxa-4-azaspiro[2.5]octan-4-yl)methyl)phenyl)-2-oxo-6-(trifluoromethyl)-1,2-dihydropyridine-3-carboxamide]
The IC50 of the first is higher: 10 to 25 µM for the first, 5 to 10 µM for the second. The second is the more potent here.

Compared with `NC(=O)c1cc(-c2ccc(OCc3ccc(F)c([N+](=O)[O-])c3)cc2)c(C(F)(F)F)[nH]c1=O` [Example 93, 5-(4-((4-fluoro-3-nitrobenzyl)oxy)phenyl)-2-oxo-6-(trifluoromethyl)-1,2-dihydropyridine-3-carboxamide], `NC(=O)c1cc(-c2ccc(OCc3ccn4ccnc4c3)cc2)c(C(F)(F)F)[nH]c1=O` [Example 91, 5-(4-(imidazo[1,2-a]pyridin-7-ylmethoxy)phenyl)-2-oxo-6-(trifluoromethyl)-1,2-dihydropyridine-3-carboxamide] is higher in IC50: 10 to 25 µM for the first, 25 to 50 µM for the second. The first is the more potent here.

`NC(=O)c1cc(-c2ccc(OCc3cccnc3)cc2)c(C(F)(F)F)[nH]c1=O` [Example 72, 2-oxo-5-(4-(pyridin-3-ylmethoxy)phenyl)-6-(trifluoromethyl)-1,2-dihydropyridine-3-carboxamide] and `NC(=O)c1cc(-c2ccc(OCc3ccccn3)cc2)c(C(F)(F)F)[nH]c1=O` [Example 73, 2-oxo-5-(4-(pyridin-2-ylmethoxy)phenyl)-6-(trifluoromethyl)-1,2-dihydropyridine-3-carboxamide] fall in the same range of IC50: 25 to 50 µM for the first, 25 to 50 µM for the second.

`CC(Oc1ccc(-c2cc(C(N)=O)c(=O)[nH]c2C(F)(F)F)cc1)c1cccnc1` (single isomer, unassigned) [Example 80, (R or S)-2-oxo-5-(4-(1-(pyridin-3-yl)ethoxy)phenyl)-6-(trifluoromethyl)-1,2-dihydropyridine-3-carboxamide] and `CC(C)Oc1ccc(-c2cc(C(N)=O)c(=O)[nH]c2C(F)(F)F)cc1` [Example 17, 5-(4-isopropoxyphenyl)-2-oxo-6-(trifluoromethyl)-1,2-dihydropyridine-3-carboxamide] fall in the same range of IC50: 10 to 25 µM for the first, 10 to 25 µM for the second.

First: NC(=O)c1cc(-c2ccc(CC3(O)CCOCC3)cc2)c(C(F)(F)F)[nH]c1=O [Example 50, 5-(4-((4-hydroxytetrahydro-2H-pyran-4-yl)methyl)phenyl)-2-oxo-6-(trifluoromethyl)-1,2-dihydropyridine-3-carboxamide]
Second: NC(=O)c1cc(-c2ccc(OCC3CNC(=O)C3)cc2)c(C(F)(F)F)[nH]c1=O (stereo not drawn) [Example 88, 2-oxo-5-(4-((5-oxopyrrolidin-3-yl)methoxy)phenyl)-6-(trifluoromethyl)-1,2-dihydropyridine-3-carboxamide]
The IC50 of the first is higher: 25 to 50 µM for the first, 5 to 10 µM for the second.

`NC(=O)c1cc(-c2ccc(OCC3CN(CC(F)F)CCO3)cc2)c(C(F)(F)F)[nH]c1=O` (stereo not drawn) [Example 192, 5-(4-((4-(2,2-difluoroethyl)morpholin-2-yl)methoxy)phenyl)-2-oxo-6-(trifluoromethyl)-1,2-dihydropyridine-3-carboxamide] gave an IC50 of 25 to 50 µM.
